The source of these data is patent US9206188B2, “Substituted pyrrolo[2,3-b]pyridines as ITK and JAK inhibitors” (Arrien Pharmaceuticals LLC, priority 2013, dated 2015).

Molecules are shown by their SMILES. Like-named read-outs stand apart in the source and are kept apart here. Some results are limits rather than exact numbers.

In one experiment the target is ITK (Homo sapiens (Human), UniProt Q08881). In words: ITK kinase assay (radiometric filter binding, 10 μM ATP). The class given is biochemical. As to conditions: read-out: ITK kinase inhibition. As for the experimental part: (§1) All additions were done on ice, followed by the addition of ATP mix. Wells were uniformly mixed using an Eppendorff plate shaker and incubated at 30° C. for 20 min, and stopped by the addition of 5 μL of 3% phosphoric acid. Volume was increased to 100 μL by adding 0.8% phosphoric acid which was then transferred to PC filter mats (Millipore), pre-equilibrated with 70% ethanol and water. Plates were washed thrice with 100 μL 0.8% phosphoric acid and dried for an hour at 60° C. 100 μL scintillation fluid was added into each well and reading taken in Perkin Elmer TOPCOUNT beta counter.
ITK, sequence (Q08881 whole entry): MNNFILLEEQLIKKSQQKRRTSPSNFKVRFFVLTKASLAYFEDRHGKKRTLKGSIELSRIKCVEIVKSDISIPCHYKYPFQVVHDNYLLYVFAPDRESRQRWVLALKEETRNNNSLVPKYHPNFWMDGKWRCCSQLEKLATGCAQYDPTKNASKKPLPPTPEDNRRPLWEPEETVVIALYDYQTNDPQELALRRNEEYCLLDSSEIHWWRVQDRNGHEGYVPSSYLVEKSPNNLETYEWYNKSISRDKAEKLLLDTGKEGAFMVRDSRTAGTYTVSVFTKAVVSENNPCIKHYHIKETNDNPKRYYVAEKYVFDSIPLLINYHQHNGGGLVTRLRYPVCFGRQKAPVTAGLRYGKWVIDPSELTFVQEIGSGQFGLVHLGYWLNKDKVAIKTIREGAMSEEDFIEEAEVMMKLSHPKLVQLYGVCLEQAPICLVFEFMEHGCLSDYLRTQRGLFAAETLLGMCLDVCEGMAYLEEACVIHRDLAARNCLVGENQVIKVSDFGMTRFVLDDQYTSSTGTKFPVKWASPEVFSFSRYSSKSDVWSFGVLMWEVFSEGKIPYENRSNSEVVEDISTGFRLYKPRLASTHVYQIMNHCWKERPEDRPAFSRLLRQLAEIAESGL
(§2) The reactions were carried out at 10 μM ATP for ITK, JAK3 and other TEC and Janus family of kinase.

For another experiment, the target named is JAK3 (Homo sapiens (Human), UniProt P52333). The experiment is described as follows: JAK3 kinase assay (radiometric filter binding, 10 μM ATP). The class given is biochemical. To be noted: 10-dose IC50 mode, 10 μM ATP; read-out: JAK3 kinase inhibition. The protocol:
as §1, §2

JAK3, sequence (P52333 whole entry): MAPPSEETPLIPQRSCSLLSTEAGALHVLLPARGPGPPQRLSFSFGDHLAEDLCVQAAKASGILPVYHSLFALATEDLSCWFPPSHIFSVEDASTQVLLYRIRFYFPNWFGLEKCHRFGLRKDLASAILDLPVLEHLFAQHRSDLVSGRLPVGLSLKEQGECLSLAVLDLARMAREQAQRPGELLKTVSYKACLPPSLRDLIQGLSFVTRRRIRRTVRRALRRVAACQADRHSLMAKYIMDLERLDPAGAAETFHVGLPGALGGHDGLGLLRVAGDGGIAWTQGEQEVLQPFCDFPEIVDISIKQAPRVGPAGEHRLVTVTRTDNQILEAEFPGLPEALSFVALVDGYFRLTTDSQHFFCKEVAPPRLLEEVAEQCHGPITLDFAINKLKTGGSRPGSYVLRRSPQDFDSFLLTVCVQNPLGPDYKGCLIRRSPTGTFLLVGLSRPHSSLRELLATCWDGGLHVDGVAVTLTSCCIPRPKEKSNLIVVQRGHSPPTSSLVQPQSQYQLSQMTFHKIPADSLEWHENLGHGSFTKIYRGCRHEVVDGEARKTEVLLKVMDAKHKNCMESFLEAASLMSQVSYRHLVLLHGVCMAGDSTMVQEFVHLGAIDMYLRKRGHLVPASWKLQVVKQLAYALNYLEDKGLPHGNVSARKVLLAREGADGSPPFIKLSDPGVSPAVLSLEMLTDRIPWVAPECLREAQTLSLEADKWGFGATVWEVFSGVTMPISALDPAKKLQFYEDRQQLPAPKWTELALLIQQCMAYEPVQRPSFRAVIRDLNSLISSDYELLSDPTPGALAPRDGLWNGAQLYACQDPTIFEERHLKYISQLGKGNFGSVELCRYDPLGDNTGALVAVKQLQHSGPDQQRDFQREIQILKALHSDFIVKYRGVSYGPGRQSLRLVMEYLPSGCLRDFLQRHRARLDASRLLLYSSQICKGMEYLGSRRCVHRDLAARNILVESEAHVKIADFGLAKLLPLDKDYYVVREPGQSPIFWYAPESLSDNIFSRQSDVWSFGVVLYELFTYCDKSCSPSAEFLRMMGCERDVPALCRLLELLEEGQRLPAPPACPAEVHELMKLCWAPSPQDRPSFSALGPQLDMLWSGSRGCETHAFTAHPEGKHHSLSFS

With `CCC#CC(=O)Nc1cccc(-c2cnc3[nH]cc(Cl)c3c2)n1` [Example 80, N-(6-(3-chloro-1H-pyrrolo[2,3-b]pyridin-5-yl)pyridin-2-yl)pent-2-ynamide], the IC50 on ITK (10-dose IC50 mode, 10 μM ATP) was under 0.1 µM; at JAK3 it was under 0.1 µM.

For the compound `COc1c(F)cc(F)cc1-c1c[nH]c2ncc(-c3cc(NC(=O)/C=C/CN(C)C)ccc3F)cc12` [Example 133, (E)-N-(3-(3-(3,5-difluoro-2-methoxyphenyl)-1H-pyrrolo[2,3-b]pyridin-5-yl)-4-fluorophenyl)-4-(dimethylamino)but-2-enamide], the IC50 on ITK (10-dose IC50 mode, 10 μM ATP) was over 0.1 µM; on JAK3, over 0.1 µM.

Consider `COc1c(F)cc(F)cc1-c1c[nH]c2ncc(-c3cc(F)cc(NC(=O)/C=C/CN(C)C)c3C)cc12` [Example 169, (E)-N-(3-(3-(3,5-difluoro-2-methoxyphenyl)-1H-pyrrolo[2,3-b]pyridin-5-yl)-5-fluoro-2-methylphenyl)-4-(dimethylamino)but-2-enamide], for which the IC50 is under 0.1 µM on ITK (10-dose IC50 mode, 10 μM ATP) and under 0.1 µM at JAK3.

For the compound `O=C(CF)Nc1cccc(-c2cnc3[nH]cc(Cl)c3c2)c1` [Example 22, N-(3-(3-chloro-1H-pyrrolo[2,3-b]pyridin-5-yl)phenyl)-2-fluoroacetamide], the IC50 on ITK (10-dose IC50 mode, 10 μM ATP) was over 1 µM; at JAK3, under 0.1 µM.

Regarding `Cc1c[nH]c2ncc(-c3cccc(NC(=O)/C=C/CN(C)C)c3)cc12` [Example 152, (E)-4-(dimethylamino)-N-(3-(3-methyl-1H-pyrrolo[2,3-b]pyridin-5-yl)phenyl)but-2-enamide], the IC50 at ITK (10-dose IC50 mode, 10 μM ATP) was over 0.1 µM; at JAK3 it was over 0.1 µM.

As for `C=CC(=O)Nc1ccccc1-c1cnc2[nH]cc(Cl)c2c1` [Example 18, N-(2-(3-chloro-1H-pyrrolo[2,3-b]pyridin-5-yl)phenyl)acrylamide], the IC50 was over 1 µM on ITK (10-dose IC50 mode, 10 μM ATP) and over 1 µM on JAK3.

Take `CC#CC(=O)Nc1cccc(-c2cnc3[nH]cc(Cl)c3c2)c1` [Example 19, N-(3-(3-chloro-1H-pyrrolo[2,3-b]pyridin-5-yl)phenyl)but-2-ynamide]: the IC50 at ITK (10-dose IC50 mode, 10 μM ATP) is under 0.1 µM; at JAK3 it was under 0.1 µM.

As to `CCC#CC(=O)Nc1cccc(-c2cnc3[nH]cc(C)c3c2)c1` [Example 24, N-(3-(3-methyl-1H-pyrrolo[2,3-b]pyridin-5-yl)phenyl)pent-2-ynamide], the IC50 is over 0.1 µM at ITK (10-dose IC50 mode, 10 μM ATP) and under 0.1 µM at JAK3.

For the compound `Cc1n[nH]c2ncc(-c3ccc(Cl)c(NC(=O)/C=C/N(C)C)c3)cc12` [Example 49, (E)-N-(2-chloro-5-(3-methyl-1H-pyrazolo[3,4-b]pyridin-5-yl)phenyl)-3-(dimethylamino)acrylamide], the IC50 on ITK (10-dose IC50 mode, 10 μM ATP) is over 0.1 µM; at JAK3 it was over 0.1 µM.

Consider `C=CC(=O)Nc1cccc(-c2cnc3[nH]cc(-c4cccc(C(N)=O)c4)c3c2)c1` [Example 76, 3-(5-(3-acrylamidophenyl)-1H-pyrrolo[2,3-b]pyridin-3-yl)benzamide], for which the IC50 was over 0.1 µM on ITK (10-dose IC50 mode, 10 μM ATP) and over 0.1 µM on JAK3.

On to `C=CC(=O)N1CCCC1C(=O)Nc1cccc(-c2cnc3[nH]cc(C)c3c2)c1` (stereo not shown) [Example 72, 1-acryloyl-N-(3-(3-methyl-1H-pyrrolo[2,3-b]pyridin-5-yl)phenyl)pyrrolidine-2-carboxamide], for which the IC50 at ITK (10-dose IC50 mode, 10 μM ATP) was over 0.1 µM; at JAK3, over 0.1 µM.

In the case of `CC#CC(=O)Nc1cccc(-c2cnc3[nH]cc(-c4cccc(S(=O)(=O)N(C)C(C)(C)C)c4)c3c2)c1` [Example 94, N-(3-(3-(3-(N-(tert-butyl)-N-methylsulfamoyl)phenyl)-1H-pyrrolo[2,3-b]pyridin-5-yl)phenyl)but-2-ynamide], the IC50 at ITK and at JAK3 was over 0.1 µM in each case.

For the compound `C#CC(=O)Nc1cccc(-c2cnc3[nH]cc(Cl)c3c2)n1` [Example 79, N-(6-(3-chloro-1H-pyrrolo[2,3-b]pyridin-5-yl)pyridin-2-yl)propiolamide], the IC50 is under 0.1 µM at ITK (10-dose IC50 mode, 10 μM ATP) and under 0.1 µM at JAK3.

As to `C=CC(=O)Nc1cc(-c2cnc3[nH]cc(-c4cc(F)cc(F)c4OC)c3c2)c(F)cc1F` [Example 39, N-(5-(3-(3,5-difluoro-2-methoxyphenyl)-1H-pyrrolo[2,3-b]pyridin-5-yl)-2,4-difluorophenyl)acrylamide], the IC50 is over 0.1 µM on ITK (10-dose IC50 mode, 10 μM ATP) and over 0.1 µM on JAK3.

With `CC#CC(=O)Nc1cccc(-c2cnc3[nH]ccc3c2)n1` [Example 81, N-(6-(1H-pyrrolo[2,3-b]pyridin-5-yl)pyridin-2-yl)but-2-ynamide], the IC50 is under 0.1 µM on ITK (10-dose IC50 mode, 10 μM ATP) and under 0.1 µM at JAK3.

Regarding `CC#CC(=O)Nc1cccc(-c2cnc3[nH]cc(Cl)c3c2)n1` [Example 82, N-(6-(3-chloro-1H-pyrrolo[2,3-b]pyridin-5-yl)pyridin-2-yl)but-2-ynamide], the IC50 is under 0.1 µM on ITK (10-dose IC50 mode, 10 μM ATP) and under 0.1 µM on JAK3.

For the compound `C=CC(=O)Nc1cccc(-c2cnc3[nH]cc(Cl)c3c2)n1` [Example 58, N-(6-(3-chloro-1H-pyrrolo[2,3-b]pyridin-5-yl)pyridin-2-yl)acrylamide], the IC50 on ITK (10-dose IC50 mode, 10 μM ATP) is over 0.1 µM; at JAK3, under 0.1 µM.

Turning to `C=CC(=O)Nc1cc(-c2cnc3[nH]cc(-c4cc(F)cc(F)c4OC)c3c2)ccc1Cl` [Example 41, N-(2-chloro-5-(3-(3,5-difluoro-2-methoxyphenyl)-1H-pyrrolo[2,3-b]pyridin-5-yl)phenyl)acrylamide], the IC50 at ITK (10-dose IC50 mode, 10 μM ATP) was over 0.1 µM; on JAK3, over 0.1 µM.

Regarding `CC#CC(=O)Nc1cc(-c2cnc3[nH]cc(C)c3c2)ccc1F` [Example 93, N-(2-fluoro-5-(3-methyl-1H-pyrrolo[2,3-b]pyridin-5-yl)phenyl)but-2-ynamide], the IC50 is over 0.1 µM on ITK (10-dose IC50 mode, 10 μM ATP) and over 0.1 µM at JAK3.

`CCC#CC(=O)Nc1cc(-c2cnc3[nH]ccc3c2)ccc1F` [Example 85, N-(2-fluoro-5-(1H-pyrrolo[2,3-b]pyridin-5-yl)phenyl)pent-2-ynamide]: the IC50 at ITK (10-dose IC50 mode, 10 μM ATP) is over 1 µM; on JAK3, under 0.1 µM.

Take `O=C(Nc1cccc(-c2cnc3[nH]cc(Cl)c3c2)c1)C1CCCN1` (stereo not shown) [Example 67, N-(3-(3-chloro-1H-pyrrolo[2,3-b]pyridin-5-yl)phenyl)pyrrolidine-2-carboxamide]: the IC50 is over 0.1 µM on ITK (10-dose IC50 mode, 10 μM ATP) and over 0.1 µM on JAK3.

As to `CC#CC(=O)Nc1cccc(-c2cnc3[nH]cc(C)c3c2)c1` [Example 23, N-(3-(3-methyl-1H-pyrrolo[2,3-b]pyridin-5-yl)phenyl)but-2-ynamide], the IC50 on ITK (10-dose IC50 mode, 10 μM ATP) was under 0.1 µM; on JAK3, under 0.1 µM.

Take `C#CC(=O)Nc1cc(-c2cnc3[nH]ccc3c2)ccc1F` [Example 83, N-(2-fluoro-5-(1H-pyrrolo[2,3-b]pyridin-5-yl)phenyl)propiolamide]: the IC50 at ITK (10-dose IC50 mode, 10 μM ATP) was over 1 µM; on JAK3, under 0.1 µM.

In the case of `C=CC(=O)Nc1cc(-c2cnc3[nH]nc(C)c3c2)ccc1Cl` [Example 50, N-(2-chloro-5-(3-methyl-1H-pyrazolo[3,4-b]pyridin-5-yl)phenyl)acrylamide], the IC50 is over 0.1 µM at ITK (10-dose IC50 mode, 10 μM ATP) and over 0.1 µM on JAK3.

For the compound `COc1c(F)cc(F)cc1-c1c[nH]c2ncc(-c3cc(F)cc(NC(=O)/C(C)=C/C(C)(C)C)c3C)cc12` [Example 170, (E)-N-(3-(3-(3,5-difluoro-2-methoxyphenyl)-1H-pyrrolo[2,3-b]pyridin-5-yl)-5-fluoro-2-methylphenyl)-2,4,4-trimethylpent-2-enamide], the IC50 at ITK (10-dose IC50 mode, 10 μM ATP) was under 0.1 µM; on JAK3, under 0.1 µM.

`C=CC(=O)Nc1cccc(-c2cnc3[nH]cc(-c4cccc(F)c4OC)c3c2)c1` [Example 26, N-(3-(3-(3-fluoro-2-methoxyphenyl)-1H-pyrrolo[2,3-b]pyridin-5-yl)phenyl)acrylamide]: the IC50 is under 0.1 µM at ITK (10-dose IC50 mode, 10 μM ATP) and under 0.1 µM on JAK3.

For `C=CC(=O)Nc1cccc(-c2cnc3[nH]cc(-c4cccc(S(=O)(=O)CC)c4)c3c2)c1` [Example 36, N-(3-(3-(3-(ethylsulfonyl)phenyl)-1H-pyrrolo[2,3-b]pyridin-5-yl)phenyl)acrylamide], the IC50 on ITK (10-dose IC50 mode, 10 μM ATP) was over 0.1 µM; on JAK3, over 0.1 µM.

Turning to `CCC#CC(=O)Nc1cccc(-c2cnc3[nH]cc(C)c3c2)n1` [Example 90, N-(6-(3-methyl-1H-pyrrolo[2,3-b]pyridin-5-yl)pyridin-2-yl)pent-2-ynamide], the IC50 was under 0.1 µM on ITK (10-dose IC50 mode, 10 μM ATP) and under 0.1 µM at JAK3.

In the case of `C=CC(=O)N1CCCC1C(=O)Nc1cccc(-c2cnc3[nH]cc(Cl)c3c2)c1` (stereo not shown) [Example 68, 1-acryloyl-N-(3-(3-chloro-1H-pyrrolo[2,3-b]pyridin-5-yl)phenyl)pyrrolidine-2-carboxamide], the IC50 on ITK (10-dose IC50 mode, 10 μM ATP) is over 0.1 µM; on JAK3 it was over 0.1 µM.

For `COc1cc(F)c(C)cc1-c1c[nH]c2ncc(-c3cccc(NC(=O)/C=C/CN(C)C)c3)cc12` [Example 138, (E)-4-(dimethylamino)-N-(3-(3-(4-fluoro-2-methoxy-5-methylphenyl)-1H-pyrrolo[2,3-b]pyridin-5-yl)phenyl)but-2-enamide], the IC50 on ITK (10-dose IC50 mode, 10 μM ATP) was over 0.1 µM; at JAK3, over 0.1 µM.

On to `C=CC(=O)Nc1ccc(-c2cnc3[nH]ccc3c2)cc1F` [Example 61, N-(2-fluoro-4-(1H-pyrrolo[2,3-b]pyridin-5-yl)phenyl)acrylamide], for which the IC50 on ITK (10-dose IC50 mode, 10 μM ATP) is over 1 µM; at JAK3, over 0.1 µM.

Consider `CC/C=C/C(=O)Nc1cc(-c2cnc3[nH]cc(Cl)c3c2)ccc1Cl` [Example 47, (E)-N-(2-chloro-5-(3-chloro-1H-pyrrolo[2,3-b]pyridin-5-yl)phenyl)pent-2-enamide], for which the IC50 at ITK (10-dose IC50 mode, 10 μM ATP) is over 1 µM; at JAK3, over 1 µM.
